Measurements from patent US11981658B2, “Substituted aminopyridine compounds as EGFR inhibitors” (YUHAN CORPORATION, priority 2021, dated 2024).
Where two headings read alike, the source gives them in different places.

Tests used:
[1] = target: EGFR L858R/C797S (Homo sapiens, UniProt P00533, C797S/L858R); assay: Biochemical EGFR kinase inhibition assay (Lance Ultra TR-FRET), double mutant L858R/C797S
Procedure: Biochemical EGFR kinase assays were conducted using Lance Ultra time-resolved fluorescence resonance energy transfer (TR-FRET) technology from Perkin-Elmer. Compounds of the invention were initially diluted to 20 mM in 100% DMSO for storage and made into kinase buffer solution to create a compound concentration ranging from 0.003 μM and 10 μM.
Each kinase reactions were incubated at room temperature for 1 hour and then stopped by the addition of 4 μL of stop solution (10 mM EDTA). The specific Europium-labeled-anti-phosphopeptide antibody (PerkinElmer, AD0069) diluted in LANCE detection buffer was then added to a final concentration of 2 nM. After 60 minutes incubation at room temperature the LANCE signal was measured on an EnVision Multilabel Reader (Perkin-Elmer). Excitation wavelength was set at 320 nm and emission monitored at 615 nm (donor) and 665 nm (acceptor). The IC50 values were determined using GraphPad prism software (GraphPad Software, Inc., San Diego, CA, USA).

[2] = target: EGFR Del19/C797S (Homo sapiens, UniProt P00533, C797S/DEL746-750); assay: Biochemical EGFR kinase inhibition assay (Lance Ultra TR-FRET), double mutant del19/C797S
Summary of the method: (§1)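 Step 1: compound in kinase buffer, 0.003–10 μM. Step 2: kinase reaction 1 h at room temperature. Step 4: TR-FRET read at 615/665 nm; IC50 calculated.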

[3] = target: EGFR wildtype (WT) (Homo sapiens, UniProt P00533); assay: Biochemical EGFR kinase inhibition assay (Lance Ultra TR-FRET), wildtype
Summary of the method: as §1

[4] = target: EGFR L858R/T790M/C797S (Homo sapiens, UniProt P00533, C797S/L858R/T790M); assay: Biochemical EGFR kinase inhibition assay (Lance Ultra TR-FRET), triple mutant L858R/T790M/C797S
Summary of the method: as §1

[5] = target: EGFR Del19/T790M/C797S (Homo sapiens, UniProt P00533, C797S/DEL746-750/T790M); assay: Biochemical EGFR kinase inhibition assay (Lance Ultra TR-FRET), triple mutant del19/T790M/C797S
Summary of the method: as §1

[6] = IC50 L858R/C797S (nM), 100 μM ATP
[7] = Km ATP, read-out: IC50 L858R/C797S (nM) Km ATP
[8] = IC50 Del19/C797S (nM), 100 μM ATP
[9] = Km ATP, read-out: IC50 Del19/C797S (nM) Km ATP
[10] = Km ATP, read-out: IC50 WT (nM) Km ATP
[11] = IC50 L858R/T790M/C797S (nM), 100 μM ATP
[12] = IC50 Del19/T790M/C797S (nM), 100 μM ATP
[13] = Km ATP, read-out: IC50 Del19/T790M/C797S (nM) Km ATP

Chain of EGFR wildtype (WT) (P00533 25-1210): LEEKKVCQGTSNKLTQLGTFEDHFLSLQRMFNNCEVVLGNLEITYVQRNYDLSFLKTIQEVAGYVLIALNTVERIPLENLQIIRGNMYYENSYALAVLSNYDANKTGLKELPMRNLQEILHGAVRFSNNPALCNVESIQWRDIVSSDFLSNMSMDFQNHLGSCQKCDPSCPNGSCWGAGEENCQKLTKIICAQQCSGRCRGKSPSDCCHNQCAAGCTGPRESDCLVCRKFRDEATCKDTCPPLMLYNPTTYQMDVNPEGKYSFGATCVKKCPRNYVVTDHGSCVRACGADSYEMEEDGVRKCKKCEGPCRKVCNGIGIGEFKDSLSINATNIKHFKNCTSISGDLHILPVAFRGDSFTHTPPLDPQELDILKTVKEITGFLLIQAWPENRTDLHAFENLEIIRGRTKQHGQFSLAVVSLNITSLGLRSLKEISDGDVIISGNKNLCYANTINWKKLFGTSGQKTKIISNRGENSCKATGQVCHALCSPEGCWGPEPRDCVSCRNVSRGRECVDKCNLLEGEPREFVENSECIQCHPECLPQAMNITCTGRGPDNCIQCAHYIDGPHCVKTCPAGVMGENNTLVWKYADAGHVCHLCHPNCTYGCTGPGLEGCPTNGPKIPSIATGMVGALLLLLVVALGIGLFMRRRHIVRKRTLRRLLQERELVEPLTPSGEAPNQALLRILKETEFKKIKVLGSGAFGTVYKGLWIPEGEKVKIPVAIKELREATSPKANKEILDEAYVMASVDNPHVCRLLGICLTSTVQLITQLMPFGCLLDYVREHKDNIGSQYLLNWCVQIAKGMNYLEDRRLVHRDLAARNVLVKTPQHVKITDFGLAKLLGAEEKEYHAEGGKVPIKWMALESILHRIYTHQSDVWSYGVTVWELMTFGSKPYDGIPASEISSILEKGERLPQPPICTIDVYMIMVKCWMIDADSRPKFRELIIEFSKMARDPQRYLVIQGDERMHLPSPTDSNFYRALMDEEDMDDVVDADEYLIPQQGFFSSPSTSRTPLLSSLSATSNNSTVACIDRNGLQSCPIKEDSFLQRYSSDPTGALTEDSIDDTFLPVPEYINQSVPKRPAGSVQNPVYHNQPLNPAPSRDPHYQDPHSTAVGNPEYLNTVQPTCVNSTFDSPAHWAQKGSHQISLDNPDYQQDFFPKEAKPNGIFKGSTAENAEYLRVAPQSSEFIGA
Chain of EGFR Del19/C797S (P00533 with tags, fused parts or gaps DEL746-750/C797S): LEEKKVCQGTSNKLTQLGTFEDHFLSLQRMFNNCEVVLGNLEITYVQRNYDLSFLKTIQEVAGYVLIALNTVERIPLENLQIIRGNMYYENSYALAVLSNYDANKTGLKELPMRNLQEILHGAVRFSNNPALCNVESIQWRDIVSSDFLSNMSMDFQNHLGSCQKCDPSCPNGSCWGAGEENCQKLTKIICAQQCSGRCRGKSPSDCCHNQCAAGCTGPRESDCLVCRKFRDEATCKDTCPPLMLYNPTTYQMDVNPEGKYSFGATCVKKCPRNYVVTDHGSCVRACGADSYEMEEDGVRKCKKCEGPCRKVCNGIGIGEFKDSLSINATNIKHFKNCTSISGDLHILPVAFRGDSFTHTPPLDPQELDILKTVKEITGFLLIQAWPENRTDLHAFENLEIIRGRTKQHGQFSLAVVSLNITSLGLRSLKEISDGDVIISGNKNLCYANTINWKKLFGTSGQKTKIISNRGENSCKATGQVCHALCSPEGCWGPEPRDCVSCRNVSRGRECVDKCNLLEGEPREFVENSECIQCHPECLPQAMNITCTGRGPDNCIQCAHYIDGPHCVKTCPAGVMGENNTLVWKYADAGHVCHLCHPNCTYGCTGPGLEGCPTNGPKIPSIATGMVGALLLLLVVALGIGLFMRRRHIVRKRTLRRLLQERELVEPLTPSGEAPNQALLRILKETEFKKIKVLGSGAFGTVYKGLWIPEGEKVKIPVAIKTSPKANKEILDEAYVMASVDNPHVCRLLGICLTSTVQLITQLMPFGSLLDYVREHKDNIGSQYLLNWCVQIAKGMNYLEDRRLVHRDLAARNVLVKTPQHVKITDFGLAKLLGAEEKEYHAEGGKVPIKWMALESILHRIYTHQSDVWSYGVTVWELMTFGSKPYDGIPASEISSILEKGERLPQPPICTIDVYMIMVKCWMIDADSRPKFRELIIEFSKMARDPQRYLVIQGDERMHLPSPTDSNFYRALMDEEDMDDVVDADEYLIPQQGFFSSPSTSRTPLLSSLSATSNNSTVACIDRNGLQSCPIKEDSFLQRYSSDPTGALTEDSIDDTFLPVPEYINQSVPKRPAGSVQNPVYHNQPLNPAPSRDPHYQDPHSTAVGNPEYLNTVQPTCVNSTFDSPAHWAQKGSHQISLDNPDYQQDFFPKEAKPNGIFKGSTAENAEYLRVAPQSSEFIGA
Chain of EGFR Del19/T790M/C797S (P00533 with tags, fused parts or gaps DEL746-750/T790M/C797S): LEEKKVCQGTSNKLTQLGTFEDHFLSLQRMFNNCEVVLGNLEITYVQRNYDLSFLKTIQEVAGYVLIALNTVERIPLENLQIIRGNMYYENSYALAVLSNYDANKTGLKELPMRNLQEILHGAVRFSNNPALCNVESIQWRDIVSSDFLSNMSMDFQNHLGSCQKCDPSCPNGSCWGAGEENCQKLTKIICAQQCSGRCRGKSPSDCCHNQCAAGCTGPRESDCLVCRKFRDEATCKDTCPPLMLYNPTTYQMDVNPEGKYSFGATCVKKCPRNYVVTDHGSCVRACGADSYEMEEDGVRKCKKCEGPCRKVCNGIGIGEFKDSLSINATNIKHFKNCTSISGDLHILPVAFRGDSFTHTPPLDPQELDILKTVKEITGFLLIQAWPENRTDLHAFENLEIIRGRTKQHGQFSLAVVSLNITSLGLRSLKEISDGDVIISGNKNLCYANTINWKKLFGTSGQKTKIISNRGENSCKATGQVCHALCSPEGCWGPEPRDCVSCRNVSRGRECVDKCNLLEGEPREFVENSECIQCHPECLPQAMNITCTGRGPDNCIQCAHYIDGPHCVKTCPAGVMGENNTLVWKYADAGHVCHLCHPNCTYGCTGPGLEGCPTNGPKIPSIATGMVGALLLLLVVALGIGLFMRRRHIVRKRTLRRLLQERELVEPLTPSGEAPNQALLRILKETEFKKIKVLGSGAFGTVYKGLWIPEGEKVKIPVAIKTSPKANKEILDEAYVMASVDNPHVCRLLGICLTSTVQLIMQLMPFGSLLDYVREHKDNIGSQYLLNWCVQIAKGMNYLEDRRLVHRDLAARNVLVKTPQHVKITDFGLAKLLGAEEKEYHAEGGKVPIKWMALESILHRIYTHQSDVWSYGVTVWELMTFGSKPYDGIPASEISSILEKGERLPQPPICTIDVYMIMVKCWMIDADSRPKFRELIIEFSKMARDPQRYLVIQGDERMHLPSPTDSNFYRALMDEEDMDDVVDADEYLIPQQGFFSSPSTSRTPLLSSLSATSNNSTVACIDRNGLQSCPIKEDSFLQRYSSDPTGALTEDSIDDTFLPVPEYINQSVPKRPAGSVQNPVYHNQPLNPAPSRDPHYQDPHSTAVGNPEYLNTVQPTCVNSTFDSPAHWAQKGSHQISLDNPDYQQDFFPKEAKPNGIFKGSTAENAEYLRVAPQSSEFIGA
Chain of EGFR L858R/T790M/C797S (P00533 25-1210 T790M/C797S/L858R): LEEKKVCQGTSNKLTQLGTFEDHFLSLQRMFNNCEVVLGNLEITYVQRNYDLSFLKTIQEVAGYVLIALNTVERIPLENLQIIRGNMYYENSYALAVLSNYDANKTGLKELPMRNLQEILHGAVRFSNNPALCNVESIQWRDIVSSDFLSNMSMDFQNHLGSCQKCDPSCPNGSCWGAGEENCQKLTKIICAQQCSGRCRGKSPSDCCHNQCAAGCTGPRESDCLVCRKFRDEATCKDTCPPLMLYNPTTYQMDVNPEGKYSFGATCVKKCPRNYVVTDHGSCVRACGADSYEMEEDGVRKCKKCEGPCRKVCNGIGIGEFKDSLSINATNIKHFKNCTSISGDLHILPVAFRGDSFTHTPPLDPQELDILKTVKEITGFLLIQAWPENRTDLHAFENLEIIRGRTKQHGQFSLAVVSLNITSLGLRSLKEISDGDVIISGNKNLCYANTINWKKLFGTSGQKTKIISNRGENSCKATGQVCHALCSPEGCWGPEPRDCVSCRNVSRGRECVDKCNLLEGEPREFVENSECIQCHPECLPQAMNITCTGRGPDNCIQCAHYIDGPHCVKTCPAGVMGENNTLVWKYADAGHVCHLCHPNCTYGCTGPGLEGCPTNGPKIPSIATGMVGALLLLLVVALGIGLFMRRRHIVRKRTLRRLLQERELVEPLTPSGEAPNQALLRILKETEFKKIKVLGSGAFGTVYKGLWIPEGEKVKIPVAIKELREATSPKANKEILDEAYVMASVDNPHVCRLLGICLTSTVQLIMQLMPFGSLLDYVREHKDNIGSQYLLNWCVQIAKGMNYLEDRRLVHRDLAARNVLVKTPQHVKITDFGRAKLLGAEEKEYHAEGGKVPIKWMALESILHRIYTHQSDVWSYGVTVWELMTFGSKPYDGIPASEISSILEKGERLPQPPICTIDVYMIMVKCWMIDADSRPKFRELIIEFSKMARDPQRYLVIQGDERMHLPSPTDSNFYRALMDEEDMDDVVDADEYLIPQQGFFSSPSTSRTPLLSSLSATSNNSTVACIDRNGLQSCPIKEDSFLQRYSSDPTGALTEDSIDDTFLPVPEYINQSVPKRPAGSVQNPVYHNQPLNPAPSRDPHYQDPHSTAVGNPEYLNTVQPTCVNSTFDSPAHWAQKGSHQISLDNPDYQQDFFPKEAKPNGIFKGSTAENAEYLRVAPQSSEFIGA

Compound	IC50 [1, 6] [nM]	IC50 [1, 7] [nM]	IC50 [2, 8] [nM]	IC50 [2, 9] [nM]	IC50 ([3]; IC50 WT (nM), 100 μM ATP) [nM]	IC50 [3, 10] [nM]	IC50 [4, 11] [nM]	IC50 [5, 12] [nM]	IC50 [5, 13] [nM]	IC50 ([4]; Km ATP, read-out: IC50 L858R/T790M/C797S (nM) Km ATP) [nM]
O=S(=O)(C1CC1)n1cc(-c2nccc(Nc3cc(N4CC[C@@H](O)C4)c(C#Cc4cnn(CCF)c4)cn3)n2)cn1 [Example 32, (R)-1-(2-((2-(1-(Cyclopropylsulfonyl)-1H-pyrazol-4-yl)pyrimidin-4-yl)amino)-5-((1-(2-fluoroethyl)-1H-pyrazol-4-yl)ethynyl)pyridin-4-yl)pyrrolidin-3-ol]	96.9	12	11.8	–	> 10000	29.4	4.8	1.1	1.5	–
Cn1cc(C#Cc2cnc(Nc3ccnc(-c4cnn(S(=O)(=O)C5CC5)c4)n3)cc2N2CCC(CO)C2)cn1 (stereo not shown) [Example 33, (1-(2-((2-(1-(Cyclopropylsulfonyl)-1H-pyrazol-4-yl)pyrimidin-4-yl)amino)-5-((1-methyl-1H-pyrazol-4-yl)ethynyl)pyridin-4-yl)pyrrolidin-3-yl)methanol]	152	–	10.2	–	> 10000	–	3.7	1.9	–	–
O=S(=O)(C1CC1)n1cc(-c2nccc(Nc3cc(N4CCC(CO)C4)c(C#Cc4cnn(CCF)c4)cn3)n2)cn1 (stereo not shown) [Example 34, (1-(2-((2-(1-(Cyclopropylsulfonyl)-1H-pyrazol-4-yl)pyrimidin-4-yl)amino)-5-((1-(2-fluoroethyl)-1H-pyrazol-4-yl)ethynyl)pyridin-4-yl)pyrrolidin-3-yl)methanol]	236	–	11.5	–	> 10000	27.9	6.8	1.8	2.1	–
CC(C)(O)C1CN(c2cc(Nc3ccnc(-c4cnn(S(=O)(=O)C5CC5)c4)n3)ncc2C#Cc2cnn(CCF)c2)C1 [Example 36, 2-(1-(2-((2-(1-(Cyclopropylsulfonyl)-1H-pyrazol-4-yl)pyrimidin-4-yl)amino)-5-((1-(2-fluoroethyl)-1H-pyrazol-4-yl)ethynyl)pyridin-4-yl)azetidin-3-yl)propan-2-ol]	100	–	25.5	–	> 10000	–	3	2.1	–	–

Further compounds by falling IC50 [1, 6], results first:

IC50 [1, 6] [nM]	IC50 [1, 7] [nM]	IC50 [2, 8] [nM]	IC50 [2, 9] [nM]	IC50 ([3]; IC50 WT (nM), 100 μM ATP) [nM]	IC50 [3, 10] [nM]	IC50 [4, 11] [nM]	IC50 [5, 12] [nM]	IC50 [5, 13] [nM]	IC50 ([4]; Km ATP, read-out: IC50 L858R/T790M/C797S (nM) Km ATP) [nM]	Compound
53	34.2	27.3	28	> 10000	99.6	2.4	1.9	0.9	2.4	Cn1cc(C#Cc2cnc(Nc3ccnc(-c4cnn(S(=O)(=O)C5CC5)c4)n3)cc2N2CC(C(C)(C)O)C2)cn1 [Example 35, 2-(1-(2-((2-(1-(Cyclopropylsulfonyl)-1H-pyrazol-4-yl)pyrimidin-4-yl)amino)-5-((1-methyl-1H-pyrazol-4-yl)ethynyl)pyridin-4-yl)azetidin-3-yl)propan-2-ol]
52.3	–	6.5	–	> 10000	–	1.4	0.7	–	–	Cn1cc(C#Cc2cnc(Nc3ccnc(-c4cnn(S(=O)(=O)C5CC5)c4)n3)cc2N2CC[C@@H](O)C2)cn1 [Example 31, (R)-1-(2-((2-(1-(Cyclopropylsulfonyl)-1H-pyrazol-4-yl)pyrimidin-4-yl)amino)-5-((1-methyl-1H-pyrazol-4-yl)ethynyl)pyridin-4-yl)pyrrolidin-3-ol]
22.3	4.4	2.8	3	> 10000	8.2	1.4	1.3	0.9	–	O=S(=O)(C1CC1)n1cc(-c2nccc(Nc3cc(N4CCC(CO)CC4)c(C#Cc4cnn(CCF)c4)cn3)n2)cn1 [Example 30, (1-(2-((2-(1-(Cyclopropylsulfonyl)-1H-pyrazol-4-yl)pyrimidin-4-yl)amino)-5-((1-(2-fluoroethyl)-1H-pyrazol-4-yl)ethynyl)pyridin-4-yl)piperidin-4-yl)methanol]
